This note sets out measurements from US10125134B2 (Mirati Therapeutics, Inc., priority 2016, dated 2018).

In one test the target is KRas G12C (Homo sapiens, UniProt P01116, C118S/C51S/C80L/G12C). The test is described as follows: KRas G12C Modification Assay (LCMS detection of covalent adduct). It counts as binding. The settings on record: normalized percent of control, tested at 5 μM concentration for 3 hours. The procedure, abridged: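 Cys-light KRas G12C mutant protein incubated with compound in K-Ras assay buffer, reactions quenched at set time points with 25 mM acetic acid and analysed by intact-protein LC/MS on a C-3 column. Deconvoluted mass heights expressed as percent of control (POC) relative to compound-free protein.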

Test [1] relates to NCI-H358 cells (express KRas G12C), Phospho-ERK. The test can be described thus: Cellular inhibition of KRas G12C: Phospho-ERK in NCI-H358 cells. Particulars: pERK(Thr202/Tyr204) normalized with GAPDH, NCI-H358 cells, 3 hours, read-out: IC50. Type of test: cell-based. The method, boiled down:
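IC50 derived by 4-parameter fit of GAPDH-normalized pERK(Thr202/Tyr204) signal, as percent of DMSO control. Signal came from in-cell immunodetection with infrared secondaries after 3 h compound exposure of KRas G12C NCI-H358 cells at 0.5% DMSO.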

Read-outs that look alike come from different tables or passages of the source.

Broadly, the IC50 is the midpoint of a concentration-inhibition curve. As for `C=CC(=O)N1CCN(c2nc(OC[C@@H]3CCCN3C)nc3c2CCN(c2c(F)cccc2C(F)(F)F)C3)CC1CC#N` (stereo partly drawn) [Example 275, 2-(1-acryloyl-4-(7-(2-fluoro-6-(trifluoromethyl)phenyl)-2-(((S)-1-methylpyrrolidin-2-yl)methoxy)-5,6,7,8-tetrahydropyrido[3,4-d]pyrimidin-4-yl)piperazin-2-yl)acetonitrile], on KRas G12C, the POC entry is “C (“C”>50% POC)”. The IC50 in test [1] (Homo sapiens, NCI-H358, 3 h) lay in the range of 0.1 to 1000 nM.

With `C=CC(=O)N1CCN(c2nc(OC[C@@H]3CCCN3C)nc3c2CCN(c2ccc(F)cc2C(F)(F)F)C3)CC1CC#N` (stereo partly drawn) [Example 276, 2-(1-acryloyl-4-(7-(4-fluoro-2-(trifluoromethyl)phenyl)-2-(((S)-1-methylpyrrolidin-2-yl)methoxy)-5,6,7,8-tetrahydropyrido[3,4-d]pyrimidin-4-yl)piperazin-2-yl)acetonitrile], the POC entry at KRas G12C was “C (“C”>50% POC)”. Also, the IC50 in test [1] (Homo sapiens, NCI-H358, 3 h) is 0.1 to 1000 nM.

Consider `C=CC(=O)N1CCN(c2nc(OC[C@@H]3CCCN3C)nc3c2CCN(c2cccc(Cl)c2C(F)(F)F)C3)CC1CC#N` (stereo partly drawn) [Example 277, 2-(1-acryloyl-4-(7-(3-chloro-2-(trifluoromethyl)phenyl)-2-(((S)-1-methylpyrrolidin-2-yl)methoxy)-5,6,7,8-tetrahydropyrido[3,4-d]pyrimidin-4-yl)piperazin-2-yl)acetonitrile], for which, on KRas G12C, the POC result was “C (“C”>50% POC)”. The IC50 in test [1] (Homo sapiens, NCI-H358, 3 h) was 0.1 to 1000 nM.

`C=CC(=O)N1CCN(c2nc(OC[C@@H]3CCCN3C)nc3c2CCN(c2ccnc4ccccc24)C3)CC1CC#N` (stereo partly drawn) [Example 278, 2-(1-acryloyl-4-(2-(((S)-1-methylpyrrolidin-2-yl)methoxy)-7-(quinolin-4-yl)-5,6,7,8-tetrahydropyrido[3,4-d]pyrimidin-4-yl)piperazin-2-yl)acetonitrile]: on KRas G12C (5 µM), the POC entry is “C (“C”>50% POC)”. For the same compound, the IC50 in test [1] lay in the range of 0.1 to 1000 nM.

Turning to `C=CC(=O)N1CCN(c2nc(OCCN(C)C)nc3c2CCN(c2ccccc2C(F)(F)F)C3)CC1CC#N` (stereo not shown) [Example 279, 2-(1-acryloyl-4-(2-(2-(dimethylamino)ethoxy)-7-(2-(trifluoromethyl)phenyl)-5,6,7,8-tetrahydropyrido[3,4-d]pyrimidin-4-yl)piperazin-2-yl)acetonitrile], on KRas G12C, the POC entry is “C (“C”>50% POC)”. Further, the IC50 in test [1] (Homo sapiens, NCI-H358, 3 h) lay in the range of 0.1 to 1000 nM.

On to `C=CC(=O)N1CCN(c2nc(OCCCN3C[C@H]4C[C@@H]3CO4)nc3c2CCN(c2ccccc2C(F)(F)F)C3)CC1CC#N` (stereo partly drawn) [Example 280, 2-(4-(2-(3-((1R,4R)-2-oxa-5-azabicyclo[2.2.1]heptan-5-yl)propoxy)-7-(2-(trifluoromethyl)phenyl)-5,6,7,8-tetrahydropyrido[3,4-d]pyrimidin-4-yl)-1-acryloylpiperazin-2-yl)acetonitrile], for which the POC entry on KRas G12C was “C (“C”>50% POC)”. In addition, the concentration for half-maximal inhibition (IC50) in test [1] (Homo sapiens) is 0.1 to 1000 nM.

Turning to `C=CC(=O)N1CCN(c2nc(OC[C@@H]3CCN(C)C3)nc3c2CCN(c2ccccc2C(F)(F)F)C3)CC1CC#N` (stereo partly drawn) [Example 281, 2-(1-acryloyl-4-(2-(((R)-1-methylpyrrolidin-3-yl)methoxy)-7-(2-(trifluoromethyl)phenyl)-5,6,7,8-tetrahydropyrido[3,4-d]pyrimidin-4-yl)piperazin-2-yl)acetonitrile], on KRas G12C, the POC entry is listed as “C (“C”>50% POC)”. Further, the IC50 in test [1] (Homo sapiens, NCI-H358, 3 h) lay within 0.1 to 1000 nM.

Consider `CC(C)=CC(=O)N1CCN(c2nc(OC[C@@H]3CCCN3C)nc3c2CCN(c2cccc4ccccc24)C3)CC1CC#N` (stereo partly drawn) [Example 282, 2-(1-(3-methylbut-2-enoyl)-4-(2-(((S)-1-methylpyrrolidin-2-yl)methoxy)-7-(naphthalen-1-yl)-5,6,7,8-tetrahydropyrido[3,4-d]pyrimidin-4-yl)piperazin-2-yl)acetonitrile], for which the POC entry at KRas G12C is reported as “A (“A”≤25% POC)”. The IC50 in test [1] (Homo sapiens, NCI-H358, 3 h) is over 1000 nM.

Turning to `C=CC(=O)N1CCN(c2nc(OC[C@H]3CCCN3C)nc3c2CCN(c2ccccc2C(F)(F)F)C3)CC1CC#N` (stereo partly drawn) [Example 283, 2-(1-acryloyl-4-(2-(((R)-1-methylpyrrolidin-2-yl)methoxy)-7-(2-(trifluoromethyl)phenyl)-5,6,7,8-tetrahydropyrido[3,4-d]pyrimidin-4-yl)piperazin-2-yl)acetonitrile], the POC result at KRas G12C is recorded as “C (“C”>50% POC)”. In addition, the IC50 in test [1] (Homo sapiens, NCI-H358, 3 h) was in the range of 0.1 to 1000 nM.

With `C=CC(=O)N1CCN(c2nc(OCCN(CC)CC)nc3c2CCN(c2ccccc2C(F)(F)F)C3)CC1CC#N` (stereo not shown) [Example 284, 2-(1-acryloyl-4-(2-(2-(diethylamino)ethoxy)-7-(2-(trifluoromethyl)phenyl)-5,6,7,8-tetrahydropyrido[3,4-d]pyrimidin-4-yl)piperazin-2-yl)acetonitrile], the POC result at KRas G12C is given as “C (“C”>50% POC)”. Moreover, the IC50 in test [1] (Homo sapiens, NCI-H358, 3 h) fell in the range of 0.1 to 1000 nM.

Consider `C=CC(=O)N1CCN(c2nc(OC[C@@H]3CCCN3C(C)C)nc3c2CCN(c2cccc4ccccc24)C3)CC1CC#N` (stereo partly drawn) [Example 285, 2-[4-[2-[[(2S)-1-isopropylpyrrolidin-2-yl]methoxy]-7-(1-naphthyl)-6,8-dihydro-5H-pyrido[3,4-d]pyrimidin-4-yl]-1-prop-2-enoyl-piperazin-2-yl]acetonitrile], for which the POC result on KRas G12C is “C (“C”>50% POC)”. In addition, in test [1] (Homo sapiens, NCI-H358, 3 h), the IC50 lay within 0.1 to 1000 nM.

Turning to `C=CC(=O)N1CCN(c2nc(OC[C@@H]3CCCN3C)nc3c2CCN(c2cccc4ccc(Cl)cc24)C3)CC1CC#N` (stereo partly drawn) [Example 286, 2-(1-acryloyl-4-(7-(7-chloronaphthalen-1-yl)-2-(((S)-1-methylpyrrolidin-2-yl)methoxy)-5,6,7,8-tetrahydropyrido[3,4-d]pyrimidin-4-yl)piperazin-2-yl)acetonitrile], the POC entry on KRas G12C is given as “C (“C”>50% POC)”. The IC50 in test [1] lay in the range of 0.1 to 1000 nM.

For `C=CC(=O)N1CCN(c2nc(OC[C@@H]3CCCN3C)nc3c2CCN(c2cccc4c(F)cccc24)C3)CC1CC#N` (stereo partly drawn) [Example 287, 2-[4-[7-(5-fluoro-1-naphthyl)-2-[[(2S)-1-methylpyrrolidin-2-yl]methoxy]-6,8-dihydro-5H-pyrido[3,4-d]pyrimidin-4-yl]-1-prop-2-enoyl-piperazin-2-yl]acetonitrile], the POC result on KRas G12C is reported as “C (“C”>50% POC)”. Also, the IC50 in test [1] is 0.1 to 1000 nM.

With `C=CC(=O)N1CCN(c2nc(OC[C@@H]3CCCN3C)nc3c2CCN(c2cccc4ccc(OC)cc24)C3)CC1CC#N` (stereo partly drawn) [Example 288, 2-[4-[7-(7-methoxy-1-naphthyl)-2-[[(2S)-1-methylpyrrolidin-2-yl]methoxy]-6,8-dihydro-5H-pyrido[3,4-d]pyrimidin-4-yl]-1-prop-2-enoyl-piperazin-2-yl]acetonitrile], at KRas G12C, the POC result is recorded as “A (“A”≤25% POC)”. Further, in test [1], the IC50 was over 1000 nM.

Regarding `C=CC(=O)N1CCN(c2nc(OC[C@@H]3CCCN3C)nc3c2CCN(c2nccc4ccccc24)C3)CC1CC#N` (stereo partly drawn) [Example 289, 2-[4-[7-(1-isoquinolyl)-2-[[(2S)-1-methylpyrrolidin-2-yl]methoxy]-6,8-dihydro-5H-pyrido[3,4-d]pyrimidin-4-yl]-1-prop-2-enoyl-piperazin-2-yl]acetonitrile], the POC entry at KRas G12C is recorded as “C (“C”>50% POC)”. The IC50 in test [1] is over 1000 nM.

For `C=CC(=O)N1CCN(c2nc(OC[C@@H]3CCCN3C)nc3c2CCN(c2cccc4cc(F)ccc24)C3)CC1CC#N` (stereo partly drawn) [Example 290, 2-[4-[7-(6-fluoro-1-naphthyl)-2-[[(2S)-1-methylpyrrolidin-2-yl]methoxy]-6,8-dihydro-5H-pyrido[3,4-d]pyrimidin-4-yl]-1-prop-2-enoyl-piperazin-2-yl]acetonitrile], at KRas G12C, the POC result was “C (“C”>50% POC)”. Moreover, the IC50 in test [1] is 0.1 to 1000 nM.

Consider `C=CC(=O)N1CCN(c2nc(OC[C@@H]3CCCN3C)nc3c2CCN(c2cncc4ccccc24)C3)CC1CC#N` (stereo partly drawn) [Example 291, 2-[4-[7-(4-isoquinolyl)-2-[[(2S)-1-methylpyrrolidin-2-yl]methoxy]-6,8-dihydro-5H-pyrido[3,4-d]pyrimidin-4-yl]-1-prop-2-enoyl-piperazin-2-yl]acetonitrile], for which the POC entry on KRas G12C was “C (“C”>50% POC)”. Further, in test [1], the IC50 lay in the range of 0.1 to 1000 nM.

As to `C=CC(=O)N1CCN(c2nc(OC[C@@H]3CCCN3C)nc3c2CCN(c2cccc4cnccc24)C3)CC1CC#N` (stereo partly drawn) [Example 292, 2-[4-[7-(5-isoquinolyl)-2-[[(2S)-1-methylpyrrolidin-2-yl]methoxy]-6,8-dihydro-5H-pyrido[3,4-d]pyrimidin-4-yl]-1-prop-2-enoyl-piperazin-2-yl]acetonitrile], on KRas G12C, the POC result is given as “A (“A”≤25% POC)”. Moreover, the IC50 in test [1] was over 1000 nM.

On to `C/C=C/C(=O)N1CCN(c2nc(OC[C@@H]3CCCN3C)nc3c2CCN(c2cccc4ccccc24)C3)CC1CC#N` (stereo partly drawn) [Example 293, 2-[1-[(E)-but-2-enoyl]-4-[2-[[(2S)-1-methylpyrrolidin-2-yl]methoxy]-7-(1-naphthyl)-6,8-dihydro-5H-pyrido[3,4-d]pyrimidin-4-yl]piperazin-2-yl]acetonitrile], for which the POC entry at KRas G12C is given as “C (“C”>50% POC)”. In addition, the IC50 in test [1] is 0.1 to 1000 nM.

Consider `C=CC(=O)N1CCN(c2nc(OC[C@@H]3CCCN3C)nc3c2CCN(c2cccc4ncccc24)C3)CC1CC#N` (stereo partly drawn) [Example 294, 2-[4-[2-[[(2S)-1-methylpyrrolidin-2-yl]methoxy]-7-(5-quinolyl)-6,8-dihydro-5H-pyrido[3,4-d]pyrimidin-4-yl]-1-prop-2-enoyl-piperazin-2-yl]acetonitrile], for which the POC result on KRas G12C is given as “C (“C”>50% POC)”. In test [1], the IC50 was over 1000 nM.
